Experimental data published in ChEMBL document CHEMBL2380302, “Synthesis of 3-O-propargylated betulinic acid and its 1,2,3-triazoles as potential apoptotic agents” (Eur J Med Chem, 2013).
pIC50: −log10 of the molar value.

Columns and labels:
PC-3 [1] = assay: Cytotoxicity against human PC3 cells after 48 hrs by SRB assay; type: functional, cell-based; conditions: PC-3, 48 h
PC-3 [2] = assay: Cytotoxicity against human PC3 cells at 30 uM after 48 hrs by SRB assay; type: functional; conditions: PC-3, 48 h, read-out: GI
HCT-15 [3] = assay: Cytotoxicity against human HCT15 cells after 48 hrs by SRB assay; type: functional, cell-based; conditions: HCT-15, 48 h
DU-145 [4] = assay: Cytotoxicity against human DU145 cells at 30 uM after 48 hrs by SRB assay; type: functional; conditions: DU-145, 48 h, read-out: GI
HEp-2 [5] = assay: Cytotoxicity against human Hep2 cells at 50 uM after 48 hrs by SRB assay; type: functional; conditions: HEp-2, 48 h, read-out: GI
MCF7 [6] = assay: Cytotoxicity against human MCF7 cells after 48 hrs by SRB assay; type: functional, cell-based; conditions: MCF7, 48 h
MCF7 [7] = assay: Cytotoxicity against human MCF7 cells at 50 uM after 48 hrs by SRB assay; type: functional; conditions: MCF7, 48 h, read-out: GI
HEp-2 [8] = assay: Cytotoxicity against human Hep2 cells at 30 uM after 48 hrs by SRB assay; type: functional; conditions: HEp-2, 48 h, read-out: GI
HL-60 [9] = assay: Cytotoxicity against human HL60 cells after 48 hrs by SRB assay; type: functional, cell-based; conditions: HL-60, 48 h
A549 [10] = assay: Cytotoxicity against human A549 cells after 48 hrs by SRB assay; type: functional, cell-based; conditions: A549, 48 h
DU-145 [11] = assay: Cytotoxicity against human DU145 cells after 48 hrs by SRB assay; type: functional, cell-based; conditions: DU-145, 48 h
PC-3 [12] = assay: Cytotoxicity against human PC3 cells at 50 uM after 48 hrs by SRB assay; type: functional; conditions: PC-3, 48 h, read-out: GI
SF-295 [13] = assay: Cytotoxicity against human SF295 cells at 30 uM after 48 hrs by SRB assay; type: functional; conditions: SF-295, 48 h, read-out: GI
A549 [14] = assay: Cytotoxicity against human A549 cells at 50 uM after 48 hrs by SRB assay; type: functional; conditions: A549, 48 h, read-out: GI
MCF7 [15] = assay: Cytotoxicity against human MCF7 cells at 10 uM after 48 hrs by SRB assay; type: functional; conditions: MCF7, 48 h, read-out: GI
HEp-2 [16] = assay: Cytotoxicity against human Hep2 cells after 48 hrs by SRB assay; type: functional, cell-based; conditions: HEp-2, 48 h
SF-295 [17] = assay: Cytotoxicity against human SF295 cells at 10 uM after 48 hrs by SRB assay; type: functional; conditions: SF-295, 48 h, read-out: GI
HEp-2 [18] = assay: Cytotoxicity against human Hep2 cells at 10 uM after 48 hrs by SRB assay; type: functional; conditions: HEp-2, 48 h, read-out: GI
HL-60 [19] = assay: Cytotoxicity against human HL60 cells at 30 uM after 48 hrs by SRB assay; type: functional; conditions: HL-60, 48 h, read-out: GI
HCT-15 [20] = assay: Cytotoxicity against human HCT15 cells at 50 uM after 48 hrs by SRB assay; type: functional; conditions: HCT-15, 48 h, read-out: GI
A549 [21] = assay: Cytotoxicity against human A549 cells at 30 uM after 48 hrs by SRB assay; type: functional; conditions: A549, 48 h, read-out: GI
HL-60 [22] = assay: Cytotoxicity against human HL60 cells at 50 uM after 48 hrs by SRB assay; type: functional; conditions: HL-60, 48 h, read-out: GI
DU-145 [23] = assay: Cytotoxicity against human DU145 cells at 10 uM after 48 hrs by SRB assay; type: functional; conditions: DU-145, 48 h, read-out: GI
THP-1 [24] = assay: Cytotoxicity against human THP1 cells at 50 uM after 48 hrs by SRB assay; type: functional; conditions: THP-1, 48 h, read-out: GI
HCT-15 [25] = assay: Cytotoxicity against human HCT15 cells at 10 uM after 48 hrs by SRB assay; type: functional; conditions: HCT-15, 48 h, read-out: GI
HL-60 [26] = assay: Cytotoxicity against human HL60 cells at 10 uM after 48 hrs by SRB assay; type: functional; conditions: HL-60, 48 h, read-out: GI
THP-1 [27] = assay: Cytotoxicity against human THP1 cells at 30 uM after 48 hrs by SRB assay; type: functional; conditions: THP-1, 48 h, read-out: GI
PC-3 [28] = assay: Cytotoxicity against human PC3 cells at 10 uM after 48 hrs by SRB assay; type: functional; conditions: PC-3, 48 h, read-out: GI
A549 [29] = assay: Cytotoxicity against human A549 cells at 10 uM after 48 hrs by SRB assay; type: functional; conditions: A549, 48 h, read-out: GI
THP-1 [30] = assay: Cytotoxicity against human THP1 cells after 48 hrs by SRB assay; type: functional, cell-based; conditions: THP-1, 48 h
SF-295 [31] = assay: Cytotoxicity against human SF295 cells after 48 hrs by SRB assay; type: functional, cell-based; conditions: SF-295, 48 h
MCF7 [32] = assay: Cytotoxicity against human MCF7 cells at 30 uM after 48 hrs by SRB assay; type: functional; conditions: MCF7, 48 h, read-out: GI
HCT-15 [33] = assay: Cytotoxicity against human HCT15 cells at 30 uM after 48 hrs by SRB assay; type: functional; conditions: HCT-15, 48 h, read-out: GI
SF-295 [34] = assay: Cytotoxicity against human SF295 cells at 50 uM after 48 hrs by SRB assay; type: functional; conditions: SF-295, 48 h, read-out: GI
THP-1 [35] = assay: Cytotoxicity against human THP1 cells at 10 uM after 48 hrs by SRB assay; type: functional; conditions: THP-1, 48 h, read-out: GI
DU-145 [36] = assay: Cytotoxicity against human DU145 cells at 50 uM after 48 hrs by SRB assay; type: functional; conditions: DU-145, 48 h, read-out: GI

| Compound | pIC50 (PC-3 [1]) | inhibition of growth at 30 µM (PC-3 [2]) | pIC50 (HCT-15 [3]) | inhibition of growth at 30 µM (DU-145 [4]) | inhibition of growth at 50 µM (HEp-2 [5]) | pIC50 (MCF7 [6]) | inhibition of growth at 50 µM (MCF7 [7]) | inhibition of growth at 30 µM (HEp-2 [8]) | pIC50 (HL-60 [9]) | pIC50 (A549 [10]) | pIC50 (DU-145 [11]) | inhibition of growth at 50 µM (PC-3 [12]) | inhibition of growth at 30 µM (SF-295 [13]) | inhibition of growth at 50 µM (A549 [14]) | inhibition of growth at 10 µM (MCF7 [15]) | pIC50 (HEp-2 [16]) | inhibition of growth at 10 µM (SF-295 [17]) | inhibition of growth at 10 µM (HEp-2 [18]) | inhibition of growth at 30 µM (HL-60 [19]) | inhibition of growth at 50 µM (HCT-15 [20]) | also measured |
| --- | --- | --- | --- | --- | --- | --- | --- | --- | --- | --- | --- | --- | --- | --- | --- | --- | --- | --- | --- | --- | --- |
| C=C(C)[C@@H]1CC[C@]2(C(=O)O)CC[C@]3(C)[C@H](CC[C@@H]4[C@@]5(C)CC[C@H](OCc6cn(-c7ccc(C#N)cc7)nn6)C(C)(C)[C@@H]5CC[C@]43C)[C@@H]12 | < 4.30 | 5% | < 4.30 | 15% | 60% | 4.31 | 51% | 49% | 4.49 | < 4.30 | < 4.30 | 42% | 18% | 36% | 5% | 4.49 | 5% | 1% | 40% | 39% | inhibition of growth at 30 µM (A549 [21]): 28%; inhibition of growth at 50 µM (HL-60 [22]): 48%; inhibition of growth at 10 µM (DU-145 [23]): 1%; inhibition of growth at 50 µM (THP-1 [24]): 47%; inhibition of growth at 10 µM (HCT-15 [25]): 14%; inhibition of growth at 10 µM (HL-60 [26]): 15%; inhibition of growth at 30 µM (THP-1 [27]): 44%; inhibition of growth at 10 µM (PC-3 [28]): 3%; inhibition of growth at 10 µM (A549 [29]): 22%; pIC50 (THP-1 [30]): < 4.30; pIC50 (SF-295 [31]): 4.32; inhibition of growth at 30 µM (MCF7 [32]): 32%; inhibition of growth at 30 µM (HCT-15 [33]): 80%; inhibition of growth at 50 µM (SF-295 [34]): 54%; inhibition of growth at 10 µM (THP-1 [35]): 21%; inhibition of growth at 50 µM (DU-145 [36]): 20% |
| C=C(C)[C@@H]1CC[C@]2(C(=O)O)CC[C@]3(C)[C@H](CC[C@@H]4[C@@]5(C)CC[C@H](OCc6cn(-c7cc(I)ccc7C)nn6)C(C)(C)[C@@H]5CC[C@]43C)[C@@H]12 | < 4.30 | 22% | < 4.30 | 41% | 25% | 4.57 | 74% | 14% | 4.74 | 4.64 | 4.41 | 4% | 20% | 67% | 30% | < 4.30 | 8% | 7% | 60% | 34% | inhibition of growth at 30 µM (A549 [21]): 53%; inhibition of growth at 50 µM (HL-60 [22]): 97%; inhibition of growth at 10 µM (DU-145 [23]): 24%; inhibition of growth at 50 µM (THP-1 [24]): 96%; inhibition of growth at 10 µM (HCT-15 [25]): 9%; inhibition of growth at 10 µM (HL-60 [26]): 40%; inhibition of growth at 30 µM (THP-1 [27]): 56%; inhibition of growth at 10 µM (PC-3 [28]): 5%; inhibition of growth at 10 µM (A549 [29]): 43%; pIC50 (THP-1 [30]): 4.66; pIC50 (SF-295 [31]): < 4.30; inhibition of growth at 30 µM (MCF7 [32]): 54%; inhibition of growth at 30 µM (HCT-15 [33]): 25%; inhibition of growth at 50 µM (SF-295 [34]): 35%; inhibition of growth at 10 µM (THP-1 [35]): 38%; inhibition of growth at 50 µM (DU-145 [36]): 65% |
